Assay results as given in patent publication US20200128823A1, “ALGICIDAL, ALGISTATIC, HERBICIDAL AND HERBISTATIC TREATMENT OF WATER” (priority 2017, published 2020).
In brackets after ≈: the same amount, converted by molar mass. Read-outs that look alike come from different tables or passages of the source.

Columns and labels:
[1] = cited from earlier work
[2] = Previous experiments: dissolution in water of a composition of gallic acid alone; assay type: physicochemical; settings: composition composed only of gallic acid, no excipient
From the text: In order to avoid this problem, excipients of different nature but without algicidal, algistatic, herbicidal or herbistatic effect are preferably added. The excipients are desirable to allow a rapid descent on the bottom of the various conditioning, the dissolution of the active substance or optionally of the active substances and secondly to create a stratum of a density greater than that of the water by a thickening action.

**Q.** For `O=C(O)/C=C/c1ccc(O)c(O)c1` [Caffeic Acid, (E) 3-(3,4-dihydroxyphenyl)prop-2-enoic acid], which “Solubility in water (in words)” value ([1]; water) is on record?
**A.** poorly soluble in water

**Q.** For `O=c1oc2c(O)c(O)cc3c(=O)oc4c(O)c(O)cc1c4c23` [Ellagic Acid, 2,3,7,8-Tetrahydroxy(1)benzopyrano (5,4,3-cde)-(1)benzopyran-5,10-dione], which Solubility ([1]; at 21° C.) is on record?
**A.** < 1 mg/mL

**Q.** With `O.O=C(O)c1cc(O)c(O)c(O)c1` [Gallic Acid Monohydrate] as the compound, how does the Solubility ([1]; water at 20° C.) read?
**A.** 15 mg/mL

**Q.** With `O=C(O)c1cc(O)c(O)c(O)c1` [Non-Hydrated Gallic Acid, 3,4,5-trihydroxybenzoic acid] as the compound, how does the Dissolution in water [2] read?
**A.** does not dissolve or is very difficult to dissolve in water

**Q.** Which Solubility in water ([1]; at 20° C.) does the source give for `Oc1cccc(O)c1O` [Pyrogallic Acid, pyrogallol] here?
**A.** 588.00 mg/mL (≈ 4660 mM)

**Q.** For `O=c1c(O)c(-c2ccc(O)c(O)c2)oc2cc(O)cc(O)c12` [Quercetin, 2-(3,4-dihydroxyphenyl)-3,5,7-trihydroxy-4H-chromen-4-one], which Solubility ([1]; water) is on record?
**A.** 0.06 mg/mL (≈ 0.199 mM)

**Q.** For `Oc1ccc(/C=C/c2cc(O)cc(O)c2)cc1` [Resveratrol, 5-[(E)-2-(4-hydroxyphenyl)-ethenyl] benzene-1,3-diol], which Solubility ([1]; DMSO) is on record?
**A.** ~16 mg/mL (≈ 70.1 mM)

**Q.** And the Solubility ([1]; ethanol)?
**A.** 50 mg/mL (≈ 219 mM)

**Q.** And the Solubility ([1]; water)?
**A.** ~0.03 mg/mL (≈ 0.131 mM)
